# Patent publication US20250319032A1, “PHARMACEUTICAL COMPOSITIONS OF RIBOCICLIB” (Novartis AG, priority 2024, published 2025)
# Experiments:
# [1] = DMP433 (N-nitroso-ribociclib) content in ribociclib base (B10) and ribociclib succinate (B12, drug substance) batches and process experiments, LC-MS/MS or HPLC-HRMS; format: physicochemical; conditions: for DMP433 [ppm] LOQ (0.0625 ppm) / DMP433 [ppm], result in brackets (extrapolation, estimate of actual value below LOQ): ribociclib base (LEE011 B10); for DMP433 (LOQ: 30 ppb): LEE011-B10, laboratory scale 30 g experiments; for DMP433 in B10: starting material of 5 kg technical batches
# Excerpt: The method of testing for the presence and/or total amount of nitrosamines (such as the presence and/or total amount of N-nitroso-ribociclib in free or salt form) that is used in the methods of the invention may be any method which allows for the detection of nitrosamines in a composition. For example, the method may involve the Griess test described above. In such a method, the nitrosamines may be first denitrosated (e.g., by photolysis) to form a nitrite, which is then detected in the Griess test. Alternatively, the method may include high performance liquid chromatography (HPLC)- and/or gas chromatography (GC)-mass spectroscopy. An example of a method of testing for the presence and amount of nitrosamines (namely N-nitroso-ribociclib) is provided herein as Example 14. […]
# 2.7. […] Dissolve the substance using vortex and fill to volume with solvent (50% MeOH). • 3. Filter through 0.2 μm PVDF (polyvinylidene difluoride) or PTFE (polytetrafluoroethylene) filter into a HPLC amber vial, discard the first 0.5 ml.
# A calibration curve for DMP433 is created, using calibration standard solutions L1-L6, and expressing the relationship between responses (peak areas) and standard concentrations (ng/ml). For L1, the average of 6 injections is used. Linear regression is weighed with 1/amount. […]
# [2] = Nitrite content (ion chromatography; LC-FLD with DAN derivatisation; Griess test) in drug substance, intermediates, reagents, solvents, filters, excipients; format: physicochemical; conditions: for Nitrite (ppb): LEE011-DS, further testing; for Nitrite (LOQ: 0.1 ppm) / Nitrite, value in brackets below LOQ: LEE011-B10, laboratory scale 30 g experiments
# Excerpt: The method of testing for the presence and/or total amount of nitrites that is used in the methods of the invention may be any method which allows for the detection and/or quantitation of nitrites in a composition. For example, the method may be the Griess test. The Griess test allows for the detection and analysis of nitrite by the formation of a red-pink colour upon treatment of a nitrite-containing sample with the Griess reagent. The Griess reagent consists of two components in an acidic solution: an aniline derivative and a coupling agent. The most common arrangements use sulfanilamide and N-(1-naphthyl)ethylenediamine. For example 0.2% N-(1-naphthyl)ethylenediamine dihydrochloride and 2% sulfanilamide in 5% phosphoric acid may be used as a Griess reagent. Other aniline derivatives that may be used in a Griess reagent include sulfanilic acid, nitroaniline, and p-aminoacetophenone.
# The Griess test involves two subsequent reactions, as shown in the scheme below. When the aniline derivative (e.g., sulfanilamide) is added, the nitrite ion reacts with it in the Griess diazotization reaction to form a diazonium salt, which then reacts with N-(1-naphthyl)ethylenediamine in an azo-coupling reaction, forming a pink-red azo-dye. Using a spectrophotometer, the nitrite concentration can then be quantitatively detected.
# Additionally purified water; e.g. Milli Q • 2.
# • 10 mM KH2PO4 Weigh accurately about 1.361 g of KH2PO4 into a 1 L volumetric flask, dissolve it in approximately 950 mL of additionally purified water and adjust the pH to 8.0 (with 2.7 M NaOH). Make up to the mark with additionally purified water. • 0.62 M HCl Add a few millilitres (e.g. 20 mL) of additionally purified water to a 200 mL volumetric flask, add 10.280 mL of concentrated HCl, mix and make up to the mark with additionally purified water. • 2.7 M NaOH Weigh accurately about 1.092 g of NaOH pellets into a 10 mL volumetric flask and dissolve it in additionally purified water. Cool to room temperature and make up to the mark with the same solvent. • Reagent DAN Weigh accurately about 5 mg of 2,3-diaminophthalene into a 100 mL volumetric flask and dissolve it with the solvent (methanol/water 1:1 (v/v)). Dilute up to the mark and ensure visual full dissolution. Use an amberglass flask. • Mobile phase A Mix 950 mL of 10 mM KH2PO4 solution (pH=8) and add 50 mL methanol. • Mobile phase B Methanol. • Solvent Methanol/water 1:1 (v/v), e.g. mix 2000 mL of additionally purified water and 2000 mL methanol.
# • Instrument: HPLC with FLR detector; e.g. Waters Arc or equivalent • Column: C18 50×4.6 mm, 2.5 μm, e.g. XBridge C18 2.5 μm, 4.650 mm or equivalent
# • Notes It is recommended to wear additional protective equipment (face mask and gloves) during weighing. • It is recommended to wash the column with 50% methanol after the analysis (example of preparation: mix 500 mL methanol and 500 m1 of additionally purified water). • It is recommended to rinse the injector with solvent after each injection. • All glassware and tools should be rinsed with additionally purified water before use. It is not recommended to leave the solutions open for a longer time before measurement. • Blank solution 1 Transfer 1 mL of solvent into a HPLC vial and perform derivatization as described below. • Blank solution 2 Transfer 10 mL of solvent into a single use glass vial and mix it on a magnetic stirrer for 30 min. Transfer the solution into a 5 mL centrifuge tube and centrifuge for 10 min at 12000 rpm. […] Fill up to the mark with solvent and mix. • (Cnitrite≈0.0005 mg/mL) • Comparison solution Transfer 10 mL of nitrite stock solution into a 500 mL volumetric flask. • (2 parallels) Fill up to the mark with solvent and mix. • Transfer 1 mL solution into a HPLC vial and perform the derivatization as described below. • (Cnitrite≈100 ppb) • Sample solution Accurately weigh about 1000 mg of the sample into a glass vial for single use and add 10 mL of solvent.
# [3] = laboratory use test, salt formation B10 to B12 with filter parts added (filter per experiment), AS&T LJ LC-MS/MS
# [4] = laboratory use test, salt formation B10 to B12 with filter parts added, QLS LJ LC-FLD/DAN
# [5] = ribociclib base (LEE011 B10), ion chromatography
# [6] = additional batches of ribociclib base LEE011-B10 (IP-1)
# [7] = starting material used in the theoretical calculation
# [8] = Raybow batch 805193A078, starting material of resin loading experiments
smiles,measurement,setting,value
CN(C)C(=O)c1cc2cnc(Nc3ccc(N4CCNCC4)cn3)nc2n1C1CCCC1.O=C(O)CCC(=O)O [Batch B728969],N-nitroso-ribociclib,[1]; starting material used for technical batch NV1900,0.21 ppm
CN(C)C(=O)c1cc2cnc(Nc3ccc(N4CCNCC4)cn3)nc2n1C1CCCC1.O=C(O)CCC(=O)O [LEE011-haenepa1-013],DMP433 in LEE011-B12,[1]; re-slurry of LEE011-B12 in iPrOH at 10° C.,64 ppm
CN(C)C(=O)c1cc2cnc(Nc3ccc(N4CCNCC4)cn3)nc2n1C1CCCC1.O=C(O)CCC(=O)O [Batch 833268A258],DMP433 [ppb],"[1]; LEE011-DS, further testing",380 ppb
same,Nitrite (ppb),[2],369 ppb
CN(C)C(=O)c1cc2cnc(Nc3ccc(N4CCNCC4)cn3)nc2n1C1CCCC1.O=C(O)CCC(=O)O [LEE011-cusakal1-035],DMP433 [ppm],[1]; [3],1.661 ppm
same,Nitrite [ppm],[2]; [4],app. 0.2 ppm
CN(C)C(=O)c1cc2cnc(Nc3ccc(N4CCNCC4)cn3)nc2n1C1CCCC1 [Batch 805193A072],DMP433 [ppm] LOQ (0.0625 ppm),[1],LOQ
same,"DMP433 [ppm], result in brackets (extrapolation, estimate of actual value below LOQ)",[1],0.060 ppm
same,Nitrite [ppm] LOD (1 ppm),[2]; [5],<LOD
CN(C)C(=O)c1cc2cnc(Nc3ccc(N4CCNCC4)cn3)nc2n1C1CCCC1 [Batch B705468],DMP433 [ppb],[1]; [6],130 ppb
same,DMP433 [ppm],[1]; [7],0.03 ppm
same,Nitrite [ppm] LOD (1 ppm),[2]; [6],<LOD
same,Nitrite [ppm],[2]; [7],<0.1 ppm
CN(C)C(=O)c1cc2cnc(Nc3ccc(N4CCNCC4)cn3)nc2n1C1CCCC1 [Batch 923037A002],DMP433 [ppm] LOQ (0.0625 ppm),[1],LOQ
same,"DMP433 [ppm], result in brackets (extrapolation, estimate of actual value below LOQ)",[1],0.047 ppm
same,Nitrite [ppm] LOD (1 ppm),[2]; [5],<LOD
CN(C)C(=O)c1cc2cnc(Nc3ccc(N4CCNCC4)cn3)nc2n1C1CCCC1.O=C(O)CCC(=O)O [LEE011-cusakal1-033],DMP433 [ppm],[1]; [3],1.272 ppm
same,Nitrite [ppm],[2]; [4],app. 0.3 ppm
CN(C)C(=O)c1cc2cnc(Nc3ccc(N4CCNCC4)cn3)nc2n1C1CCCC1.O=C(O)CCC(=O)O [Batch 833268A259],DMP433 [ppb],"[1]; LEE011-DS, further testing",395 ppb
same,Nitrite (ppb),[2],284 ppb
CN(C)C(=O)c1cc2cnc(Nc3ccc(N4CCNCC4)cn3)nc2n1C1CCCC1 [Batch 805193A077],DMP433 [ppb],[1]; [6],51 ppb
same,Nitrite [ppm] LOD (1 ppm),[2]; [6],<LOD
CN(C)C(=O)c1cc2cnc(Nc3ccc(N4CCNCC4)cn3)nc2n1C1CCCC1 [Batch 805193A098],DMP433 (LOQ: 30 ppb),[1],78.8 ppb
same,Nitrite (LOQ: 0.1 ppm),[2],< 0.1 ppm
same,"Nitrite, value in brackets below LOQ",[2],0.07 ppm
CN(C)C(=O)c1cc2cnc(Nc3ccc(N4CCNCC4)cn3)nc2n1C1CCCC1 [Batch B704193],DMP433 [ppb],[1]; [6],57 ppb
same,DMP433 [ppm] LOQ (0.0625 ppm),[1],LOQ
same,"DMP433 [ppm], result in brackets (extrapolation, estimate of actual value below LOQ)",[1],0.006 ppm
same,Nitrite [ppm] LOD (1 ppm),[2]; [6],<LOD
CN(C)C(=O)c1cc2cnc(Nc3ccc(N4CCNCC4)cn3)nc2n1C1CCCC1.O=C(O)CCC(=O)O [LEE011-cusakal1-034],DMP433 [ppm],[1]; [3],1.789 ppm
same,Nitrite [ppm],[2]; [4],app. 0.2 ppm
"CN(C)C(=O)c1cc2cnc(Nc3ccc(N4CCNCC4)cn3)nc2n1C1CCCC1 [Ribociclib, 7-cyclopentyl-N, N-dimethyl-2-{[5-(piperazin-1-yl)pyridin-2-yl]amino}-7H-pyrrolo[2,3-d]pyrimidine-6-carboxamide]",DMP433 in LEE011-B10,[1]; [8],92 ppb
same,"DMP433, best result","[1]; isopropanol distilled over ascorbic acid, B10 added last",0.34 ppm
same,Nitrite in LEE011-B10,[2]; [8],257 ppb
CN(C)C(=O)c1cc2cnc(Nc3ccc(N4CCNCC4)cn3)nc2n1C1CCCC1 [Batch 805193A074],DMP433 [ppm] LOQ (0.0625 ppm),[1],LOQ
same,"DMP433 [ppm], result in brackets (extrapolation, estimate of actual value below LOQ)",[1],0.029 ppm
same,Nitrite [ppm] LOD (1 ppm),[2]; [5],<LOD
CN(C)C(=O)c1cc2cnc(Nc3ccc(N4CCNCC4)cn3)nc2n1C1CCCC1 [Batch 805193A097],DMP433 (LOQ: 30 ppb),[1],73.9 ppb
same,Nitrite (LOQ: 0.1 ppm),[2],< 0.1 ppm
same,"Nitrite, value in brackets below LOQ",[2],0.07 ppm
CN(C)C(=O)c1cc2cnc(Nc3ccc(N4CCNCC4)cn3)nc2n1C1CCCC1.O=C(O)CCC(=O)O [Batch B0705468],DMP433 [ppm] LOQ (0.0625 ppm),[1],LOQ
same,"DMP433 [ppm], result in brackets (extrapolation, estimate of actual value below LOQ)",[1],0.030 ppm
CN(C)C(=O)c1cc2cnc(Nc3ccc(N4CCNCC4)cn3)nc2n1C1CCCC1.O=C(O)CCC(=O)O [LEE011-cusakal1-021],DMP433 [ppm],[1]; [3],1.682 LJ ppm
same,Nitrite [ppm],[2]; [4],app. 0.26 ppm
CN(C)C(=O)c1cc2cnc(Nc3ccc(N4CCNCC4)cn3)nc2n1C1CCCC1.O=C(O)CCC(=O)O [Batch B699003AA],DMP433 content (corrected value) at release,[1]; drug substance DS06 used for tablet core experiments and binary mixtures,0.655 ppm
CN(C)C(=O)c1cc2cnc(Nc3ccc(N4CCNCC4)cn3)nc2n1C1CCCC1.O=C(O)CCC(=O)O [Technical batch 2],DMP433 in B10,[1],55.8 ppb
same,reduction of the amount of DMP433 formed by use of distilled iPrOH,[1]; technical batch 2 (distilled) vs technical batch 1 (non-distilled),approx. 50%
CN(C)C(=O)c1cc2cnc(Nc3ccc(N4CCNCC4)cn3)nc2n1C1CCCC1 [LEE011-cusakal1-032],DMP433 [ppm],[1]; [3],1.487 ppm
same,Nitrite [ppm],[2]; [4],app. 0.3 ppm
CN(C)C(=O)c1cc2cnc(Nc3ccc(N4CCNCC4)cn3)nc2n1C1CCCC1 [Batch B704194],DMP433 [ppm] LOQ (0.0625 ppm),[1],LOQ
same,"DMP433 [ppm], result in brackets (extrapolation, estimate of actual value below LOQ)",[1],0.005 ppm
CN(C)C(=O)c1cc2cnc(Nc3ccc(N4CCNCC4)cn3)nc2n1C1CCCC1 [Batch B0705467],DMP433 [ppm] LOQ (0.0625 ppm),[1],LOQ
same,"DMP433 [ppm], result in brackets (extrapolation, estimate of actual value below LOQ)",[1],0.035 ppm
CN(C)C(=O)c1cc2cnc(Nc3ccc(N4CCNCC4)cn3)nc2n1C1CCCC1 [Batch B704196],DMP433 [ppm] LOQ (0.0625 ppm),[1],LOQ
same,"DMP433 [ppm], result in brackets (extrapolation, estimate of actual value below LOQ)",[1],0.019 ppm
CN(C)C(=O)c1cc2cnc(Nc3ccc(N4CCNCC4)cn3)nc2n1C1CCCC1.O=C(O)CCC(=O)O [Technical batch 1],DMP433 in B10,[1],55.8 ppb
